According to patent US20260053861A1, “CELL COMPOSITIONS AND METHODS OF USING THE SAME” (THE REGENTS OF THE UNIVERSITY OF CALIFORNIA, priority 2022, published 2026):
Where a name gives a salt, the structure may show the parent alone. Non-standard residues stand in square brackets, D forms with d. Residues, ends and D or L forms follow the SMILES beside them. *: point of attachment. Sta = CC(C)C[C@H](N)[C@@H](O)CC(=O)O; Isovaleryl = CC(C)CC(=O)*

Tested on: hPSC-SCs
Conditions: not given

First: C[C@@H]1[C@H](O)[C@@H](C)/C=C/C=C/CC/C=C/C=C/C=C/C=C/C(O[C@H]2O[C@H](C)[C@@H](O)[C@H](N)[C@@H]2O)CC2O[C@](O)(CC(O)C(O)CCC(O)CC(O)CC(O)CC(=O)O[C@H]1C)CC(O)C2C(=O)O (stereo partly drawn) [Nystatine]
Second: C[N+]1(CCCCC[N+]2(C)CCCC2)CCCC1.O=C([O-])C(O)C(O)C(=O)O.O=C([O-])C(O)C(O)C(=O)O [Pentolinium bitartrate]
The z.score.t of the first is higher: 1.992 for the first, 0.2038 for the second.

First: CCCCc1ccc2[nH]c(NC(=O)OC)nc2c1 [Parbendazole]
Second: CC(C)CC(=O)N[C@H](C(=O)N[C@H](C(=O)N[C@@H](CC(C)C)[C@@H](O)CC(=O)N[C@@H](C)C(=O)N[C@@H](CC(C)C)[C@@H](O)CC(=O)O)C(C)C)C(C)C [Pepstatin A] (Isovaleryl-VV[Sta]A[Sta]-OH)
The z.score.t of the first is lower: −1.543 for the first, −1.319 for the second.

Same assay, conditions: HTS viability of hPSC-SCs in the presence of 30 mM glucose; Prestwick library; Table S4

First: CCn1cc(C(=O)O)c(=O)c2cc(F)c(N3CCNCC3)cc21 [Norfloxacin]
Second: CCn1cc(C(=O)O)c(=O)c2cc3c(cc21)OCO3 [Oxolinic acid]
The z.score.t of the first is lower: 0.3922 for the first, 1.315 for the second.

Compared with C#C[C@]1(O)CC[C@H]2[C@@H]3CCC4=CC(=O)CC[C@@H]4[C@H]3CC[C@@]21CC [Norgestrel-(−)-D], CC(=O)O[C@H]1C[C@@H]2CC[C@@H]3[C@H](CC[C@@]4(C)[C@H]3C[C@H]([N+]3(C)CCCCC3)[C@@H]4OC(C)=O)[C@@]2(C)C[C@@H]1[N+]1(C)CCCCC1 [Pancuronium bromide] is higher in z.score.t: 0.0116 for the first, 0.1543 for the second.

First: CNCCC=C1c2ccccc2CCc2ccccc21 [Nortriptyline hydrochloride]
Second: COc1ccc(C(=O)c2ccccc2)c(O)c1 [Oxybenzone]
The z.score.t of the first is lower: −1.753 for the first, −0.6594 for the second.

Going from COc1ccc2c(c1OC)C(=O)O[C@@H]2[C@H]1c2c(cc3c(c2OC)OCO3)CCN1C [Noscapine] to COc1cc2c(cc1OC)-c1cc3ccc(OC)c(OC)c3c[n+]1CC2 [Palmatine chloride], the z.score.t rises from −0.3731 to 0.5822.

Compared with CO[C@@H]1[C@@H](OC(N)=O)[C@@H](O)[C@H](Oc2ccc3c(O)c(NC(=O)c4ccc(O)c(CC=C(C)C)c4)c(=O)oc3c2C)OC1(C)C [Novobiocin sodium salt], CN(C)[C@@H]1C(O)=C(C(N)=O)C(=O)[C@@]2(O)C(O)=C3C(=O)c4c(O)cccc4[C@@](C)(O)[C@H]3[C@H](O)[C@@H]12 [Oxytetracycline dihydrate] is lower in z.score.t: 1.481 for the first, −0.09426 for the second.

First: CC1COc2c(N3CCN(C)CC3)c(F)cc3c(=O)c(C(=O)O)cn1c23 (stereo not drawn) [Ofloxacin]
Second: OCCN1CCN(CCCN2c3ccccc3Sc3ccc(Cl)cc32)CC1 [Perphenazine]
The z.score.t of the first is higher: −1.243 for the first, −1.746 for the second.

Compared with CO[C@H]1C[C@H](O[C@H]2[C@H](C)[C@@H](O[C@@H]3O[C@H](C)C[C@H](N(C)C)[C@H]3O)[C@@H](C)C[C@@]3(CO3)C(=O)[C@H](C)[C@@H](O)[C@@H](C)[C@@H](C)OC(=O)[C@@H]2C)O[C@@H](C)[C@@H]1O [Oleandomycin phosphate], NC[C@@H]1O[C@H](O[C@H]2[C@@H](O)[C@H](O[C@@H]3[C@@H](O)[C@H](N)C[C@H](N)[C@H]3O[C@H]3O[C@H](CO)[C@@H](O)[C@H](O)[C@H]3N)O[C@@H]2CO)[C@H](N)[C@@H](O)[C@@H]1O [Paromomycin sulfate] is lower in z.score.t: −0.5417 for the first, −1.074 for the second.

Going from COc1ccc2[nH]c([S+]([O-])Cc3ncc(C)c(OC)c3C)nc2c1 (stereo not drawn) [Omeprazole] to COc1ccc(Cc2nccc3cc(OC)c(OC)cc23)cc1OC [Papaverine hydrochloride], the z.score.t rises from 0.1344 to 0.1556.

First: Cc1nccn1CC1CCc2c(c3ccccc3n2C)C1=O (stereo not drawn) [Ondansetron Hydrochloride]
Second: CCCCC1C(=O)N(c2ccccc2)N(c2ccc(O)cc2)C1=O (stereo not drawn) [Oxyphenbutazone]
The z.score.t of the first is higher: −0.3173 for the first, −0.8111 for the second.

Compared with Cc1ncc([N+](=O)[O-])n1CC(O)CCl (stereo not drawn) [Ornidazole], CC(=O)CCCCn1c(=O)c2c(ncn2C)n(C)c1=O [Pentoxifylline] is higher in z.score.t: 0.1446 for the first, 1.045 for the second.

First: Cc1ccccc1C(OCCN(C)C)c1ccccc1 (stereo not drawn) [Orphenadrine hydrochloride]
Second: O=C(O)CCc1nc(-c2ccccc2)c(-c2ccccc2)o1 [Oxaprozin]
The z.score.t of the first is lower: −1.003 for the first, 0.0827 for the second.

Compared with CCN(CC)CCc1nc(-c2ccccc2)no1.O=C(O)CC(O)(CC(=O)O)C(=O)O [Oxalamine citrate salt], CCN(CC)CC#CCOC(=O)C(O)(c1ccccc1)C1CCCCC1 (stereo not drawn) [Oxybutynin chloride] is lower in z.score.t: −0.3023 for the first, −0.7013 for the second.

First: CN1CCCN=C1/C=C/c1cccc(O)c1.O=C(O)c1cc2ccccc2c(Cc2c(O)c(C(=O)O)cc3ccccc23)c1O [Oxantel pamoate]
Second: CC(=O)O[C@H]1C(=O)[C@@]2(C)[C@H]([C@H](OC(=O)c3ccccc3)[C@]3(O)C[C@H](OC(=O)[C@H](O)[C@@H](NC(=O)c4ccccc4)c4ccccc4)C(C)=C1C3(C)C)[C@]1(OC(C)=O)CO[C@@H]1C[C@@H]2O [Paclitaxel]
The z.score.t of the first is higher: −0.3936 for the first, −1.418 for the second.

Going from CN(C(=O)CN(CCO)CC(=O)N(C)C(C)(C)Cc1ccccc1)C(C)(C)Cc1ccccc1 [Oxethazaine] to C#CCN(C)Cc1ccccc1 [Pargyline hydrochloride], the z.score.t rises from −1.253 to 0.7789.

Going from C=CCOc1ccccc1OCC(O)CNC(C)C (stereo not drawn) [Oxprenolol hydrochloride] to CC(C)(C)NC[C@H](O)COc1ccccc1C1CCCC1 [Penbutolol sulfate], the z.score.t rises from −1.046 to −0.9376.

First: Cc1cc(C(C)(C)C)c(O)c(C)c1CC1=NCCN1 [Oxymetazoline hydrochloride]
Second: Fc1ccc([C@@H]2CCNC[C@H]2COc2ccc3c(c2)OCO3)cc1 [Paroxetine Hydrochloride]
The z.score.t of the first is higher: −0.7524 for the first, −1.138 for the second.

Going from O=C(O)/C=C/c1ccc(Cn2ccnc2)cc1 [Ozagrel hydrochloride] to CCOc1ccc(NC(C)=O)cc1 [Phenacetin], the z.score.t rises from −1.148 to 0.8023.

Compared with CC(C)(CO)[C@@H](O)C(=O)NCCCO [Panthenol (D)], CC(C)(CO)[C@@H](O)C(=O)NCCC(=O)O [Pantothenic acid calcium salt monohydrate] is lower in z.score.t: 0.6517 for the first, −0.9817 for the second.

Going from CN1C(C)(C)CCCC1(C)C [Pempidine tartrate] to C1CCc2nnnn2CC1 [Pentylenetetrazole], the z.score.t rises from −0.5583 to 1.171.

Going from N=C(N)c1ccc(OCCCCCOc2ccc(C(=N)N)cc2)cc1 [Pentamidine isethionate] to Nc1ccc(/N=N/c2ccccc2)c(N)n1 [Phenazopyridine hydrochloride], the z.score.t rises from −0.8129 to 1.999.

Compared with O=C(O)CN(CCN(CC(=O)O)CC(=O)O)CCN(CC(=O)O)CC(=O)O [Pentetic acid], CCC[C@H](N[C@@H](C)C(=O)N1[C@H](C(=O)O)C[C@@H]2CCCC[C@@H]21)C(=O)OCC [Perindopril] is higher in z.score.t: −0.3461 for the first, 2.067 for the second.

Compared with CCCN1C[C@H](CSC)C[C@@H]2c3cccc4[nH]cc(c34)C[C@H]21 [Pergolide mesylate], CC(Oc1ccccc1)C(=O)N[C@@H]1C(=O)N2[C@@H]1SC(C)(C)[C@@H]2C(=O)O (stereo partly drawn) [Phenethicillin potassium salt] is higher in z.score.t: 0.1298 for the first, 0.7158 for the second.

First: C1CCC(C(CC2CCCCN2)C2CCCCC2)CC1 (stereo not drawn) [Perhexiline maleate]
Second: [H]/N=C(/N)N/C(=N/[H])NCCc1ccccc1 [Phenformin hydrochloride]
The z.score.t of the first is lower: −1.682 for the first, 0.9109 for the second.

NNCCc1ccccc1 [Phenelzine sulfate] was tested, and the z.score.t was 0.852.
